# US20220257491A1, “Prebiotic Oral Care Compositions and Methods” (Colgate-Palmolive Company, priority 2021, published 2022)
# “And” between values parts separate entries of the source, which are not always exact repeats. Equal entries are not always repeated. Marks after values point to notes of the source that are not given here.
# Legend:
# Assay type in all cases: cell-based
# P. gingivalis = test: Multi-species biofilm composition: absolute abundance of P. gingivalis; details: mean±SD n=3
# Procedure: (§1) Biofilms are grown vertically on Calcium Deficient Hydroxyapatite (CAD-HA) disks (Hitemco Medical, Old Bethpage, USA) using the Amsterdam Active Adhesion model. Biofilms are allowed to establish during 24 h (37° C., 170 rpm) under micro-aerophilic conditions (6% O2, 7% CO2, 7% H2, 80% N2). After this 24 h, disks are rinsed 3 times a day for 3 minutes (RT, 250 rpm), for 3 consecutive days, by transferring the lid containing the disks to a new 24-well plate containing 2 mL/well of the appropriate substrate solution. As a negative control, PBS (pH 5.7) without substrate supplementation is used. After each rinsing step, disks are shortly dip-rinsed in a new 24-well plate containing fresh modified BHI medium (2 mL/well) to remove remaining substrate traces. Subsequently, the lid is transferred to another 24-well plate containing fresh modified BHI medium (2 mL/well), followed by incubation (micro-aerophilic, 37° C., 170 rpm) until the next rinsing step.
# (§2) NADM, N-acetyl-D-glucosamine (“NADG”) and D-(+)-mannose are selected to determine their effects on multi-species biofilm composition. […] decrease in absolute numbers in at least four of the pathogenic bacterial species tested in the assay, compared to the control, the results of which are described in Table 1 below. Absolute abundances of bacterial species are shown as mean±SD (n=3) logarithmic values of the genome equivalents per millilitre (log(Geq/mL)).
# P. intermedia = test: Multi-species biofilm composition: absolute abundance of P. intermedia; details: mean±SD n=3
# Procedure: as §1
# (§3) NADM, N-acetyl-D-glucosamine (“NADG”) and D-(+)-mannose are selected to determine their effects on multi-species biofilm composition. Repeated rinsing of the biofilms with the substrates at a concentration of 1M results in a significant decrease in absolute numbers in at least four of the pathogenic bacterial species tested in the assay, compared to the control, the results of which are described in Table 1 below. Absolute abundances of bacterial species are shown as mean±SD (n=3) logarithmic values of the genome equivalents per millilitre (log(Geq/mL)).
# S. sobrinus = test: Multi-species biofilm composition: absolute abundance of S. sobrinus; details: mean±SD n=3
# Procedure: as §1, §2
# A. naeslundii = test: Multi-species biofilm composition: absolute abundance of A. naeslundii; details: mean±SD n=3
# Procedure: as §1, §3
# A. viscosus = test: Multi-species biofilm composition: absolute abundance of A. viscosus; details: mean±SD n=3
# Procedure: as §1, §2
# S. gordonii = test: Multi-species biofilm composition: absolute abundance of S. gordonii; details: mean±SD n=3
# Procedure: as §1, §3
# S. oralis = test: Multi-species biofilm composition: absolute abundance of S. oralis; details: for Absolute abundance S. oralis: mean±SD n=3
# Procedure: as §1, §2
# S. salivarius = test: Multi-species biofilm composition: absolute abundance of S. salivarius; details: mean±SD n=3
# Procedure: as §1, §3
# multi-species biofilm = test: Relative multi-species biofilm composition (groups of bacterial species)
# Procedure: as §1, §2
# Relative abundances of the different groups (beneficial/commensals, periodontal pathogens, cariogenic pathogens) of bacterial species are shown as mean±SD (n=3) percentage of the genome equivalents per millilitre (% (Geq/mL)). […] NADM: N-acetyl-D-mannosamine; NADG: N-acetyl-D-glucosamine.
# multi-species biofilms = test: Multi-species biofilm organic acid balances (supernatant); details: >0 production, <0 consumption, mean±SD n=3
# Procedure: as §1
# To examine the effect of NADM and the influence of the orientation and absence/presence of the N-acetyl group on organic acid production and consumption, supernatant samples from substrate-treated or untreated multi-species biofilms are analysed. […] When comparing relevant significant differences between substrate conditions, an increase in acetate production is observed for NADM compared to D-(+)-mannose (3084±174 vs. 1934±56 mg/L).
# [1] = test system: F. nucleatum virulence genes; test: Multi-species biofilm virulence gene expression, SYBR RT-qPCR: F. nucleatum; details: for Fold Change in virulence gene expression: ABC transp. perm. / Fold Change in virulence gene expression: EF-G / Fold Change in virulence gene expression: but.-coA transf. / Fold Change in virulence gene expression: hemin receptor / Fold Change in virulence gene expression: hemolysin / Fold Change in virulence gene expression: ompA / Fold Change in virulence gene expression: transposase: relative to control (=1), 2^-ΔΔCt, geometric mean n=3
# Procedure: as §1
# The expression of 33 virulence genes from 4 periodontal pathogens is analysed to evaluate the relative virulence of the substrate-treated biofilms. For all three substrates, virulence gene expression is determined relatively to the control, and these values are also compared between substrates when this is relevant (Tables 5a-5d).
# [2] = test system: human oral keratinocytes (HOK-18A); test: IL-8 levels in supernatants of keratinocyte cultures exposed to substrate-treated biofilms; details: mean±SD n=3
# Procedure: Cultures of immortalized human oral keratinocytes (HOK-18A) are grown. The relative inflammatory potential of the substrate-treated multi-species biofilms is evaluated by analyzing the expression of five inflammatory mediator genes in human oral keratinocytes (HOKs) exposed to the substrate-treated biofilms. […] The IL-8 levels in the cellular supernatant are determined as well. RNA is converted to cDNA and relative expression of inflammatory mediator genes is determined as described above with respect to the cellular housekeeping gene (3-actin.
# Table 7: IL-8 levels detected in the supernatants of human oral keratinocytes (HOK-18A) cultures exposed to substrate-treated multi-species biofilms are shown as mean±SD (n=3) values (pg/mL). All substrates are dissolved in PBS at a concentration of 1 M (upper part) or 1% (w/v) (lower part). Values between 0 and 1 represent relative downregulation, values >1 represent relative upregulation. […] For such values, statistically significant differences between two experimental conditions are marked with ‘#1’ (vs. NADM), ‘#2’ (vs. NADG), ‘#3’ (vs. D-(+)-mannose) (P<0.05).
# [3] = substrate 1%(w/v) in PBS, mean±SD n=3
# [4] = substrate 1 M in PBS, mean±SD n=3
smiles,measurement,setting,value
"CC(=O)N[C@H]1C(O)O[C@H](CO)[C@@H](O)[C@@H]1O (stereo partly drawn) [NADG, N-acetyl-D-glucosamine, reference compound]",Absolute abundance Pg (P. gingivalis),P. gingivalis; substrate 1%(w/v) in PBS,7.14 ± 0.28 log(Geq/mL)
same,Absolute abundance Pg (P. gingivalis),P. gingivalis; substrate 1 M in PBS,"4.00 ± 0.39*^, ^#3 log(Geq/mL)"
same,Absolute abundance Pi (P. intermedia),P. intermedia; substrate 1%(w/v) in PBS,8.17 ± 0.22 log(Geq/mL)
same,Absolute abundance Pi (P. intermedia),P. intermedia; substrate 1 M in PBS,6.93 ± 0.62 log(Geq/mL)
same,Absolute abundance S. sobrinus,S. sobrinus; substrate 1%(w/v) in PBS,4.87 ± 0.22 log(Geq/mL)
same,Absolute abundance S. sobrinus,S. sobrinus; substrate 1 M in PBS,4.16 ± 0.44 log(Geq/mL)
same,Absolute abundance An (A. naeslundii),A. naeslundii; substrate 1%(w/v) in PBS,7.71 ± 0.12 log(Geq/mL)
same,Absolute abundance An (A. naeslundii),A. naeslundii; substrate 1 M in PBS,6.52 ± 0.20 log(Geq/mL)
same,Absolute abundance Av (A. viscosus),A. viscosus; substrate 1%(w/v) in PBS,7.83 ± 0.31 log(Geq/mL)
same,Absolute abundance Av (A. viscosus),A. viscosus; substrate 1 M in PBS,6.92 ± 0.45 log(Geq/mL)
same,Absolute abundance S. gord. (S. gordonii),S. gordonii; substrate 1%(w/v) in PBS,8.33 ± 0.06 log(Geq/mL)
same,Absolute abundance S. gord. (S. gordonii),S. gordonii; substrate 1 M in PBS,9.38 ± 0.40 log(Geq/mL)
same,Absolute abundance S. oralis,S. oralis; substrate 1%(w/v) in PBS,7.11 ± 0.14 log(Geq/mL)
same,Change in S. oralis numbers compared to the control,S. oralis; substrate 1 M,+1.0 log(Geq/mL)
same,Absolute abundance S. oralis,S. oralis; substrate 1 M in PBS,"7.97 ± 0.31*^, #1 log(Geq/mL)"
same,Absolute abundance S. sal. (S. salivarius),S. salivarius; substrate 1%(w/v) in PBS,2.65 ± 0.00 log(Geq/mL)
same,Absolute abundance S. sal. (S. salivarius),S. salivarius; substrate 1 M in PBS,4.38 ± 1.23 log(Geq/mL)
same,Relative abundance Beneficials/Commensals,multi-species biofilm; [3],60.07 ± 8.25 % (Geq/mL)
same,Relative abundance Cariogenic Pathogens,multi-species biofilm; [3],0.66±0.27 % (Geq/mL)
same,Relative abundance Periodontal Pathogens,multi-species biofilm; [3],39.27 ± 7.98 % (Geq/mL)
same,Relative abundance Beneficial or commensals,multi-species biofilm; [4],97.52±0.82 % (Geq/mL)
same,Relative abundance Cariogenic Pathogens,multi-species biofilm; [4],2.35 ± 0.92 % (Geq/mL)
same,Relative abundance Periodontal Pathogens,multi-species biofilm; [4],"0.13±0.10 % (Geq/mL) and 0.13 ± 0.10 *^, #1 % (Geq/mL)"
same,"Decreases in A. actinomycetemcomitans, F. nucleatum, P. gingivalis, P. intermedia and S. sobrinus numbers vs control","multi-species biofilm; substrate 1 M, range over the species",−1.5 to −2.5 log(Geq/mL)
same,acetate level in biofilm supernatant,multi-species biofilms; substrate 1%(w/v),379 ± 10 mg/L
same,butyrate level in biofilm supernatant,multi-species biofilms; substrate 1%(w/v),2238 ± 59 mg/L
same,formate level in biofilm supernatant,multi-species biofilms; substrate 1%(w/v),4315 ± 198 mg/L
same,lactate level in biofilm supernatant,multi-species biofilms; substrate 1%(w/v),125 ± 0 mg/L
same,propionate level in biofilm supernatant,multi-species biofilms; substrate 1%(w/v),2205 ± 89 mg/L
same,acetate level in biofilm supernatant,multi-species biofilms; substrate 1 M,3815 ± 77 mg/L
same,butyrate level in biofilm supernatant,multi-species biofilms; substrate 1 M,"1255±51 mg/L and 1255 ± 51*^, #1, 3 mg/L"
same,formate level in biofilm supernatant,multi-species biofilms; substrate 1 M,352 ± 18 mg/L
same,lactate level in biofilm supernatant,multi-species biofilms; substrate 1 M,125 ± 0 mg/L
same,propionate level in biofilm supernatant,multi-species biofilms; substrate 1 M,2750 ± 40 mg/L
same,Fold Change in virulence gene expression: ABC transp. perm.,[1]; substrate 1%,0.33 fold
same,Fold Change in virulence gene expression: EF-G,[1]; substrate 1%,0.10 fold
same,Fold Change in virulence gene expression: but.-coA transf.,[1]; substrate 1%,0.21 fold
same,Fold Change in virulence gene expression: hemin receptor,[1]; substrate 1%,0.19 fold
same,Fold Change in virulence gene expression: hemolysin,[1]; substrate 1%,0.79 fold
same,Fold Change in virulence gene expression: ompA,[1]; substrate 1%,0.74 fold
same,Fold Change in virulence gene expression: transposase,[1]; substrate 1%,0.98 fold
same,"F. nucleatum hemolysin gene, upregulation",[1]; substrate 1 M,1.9 fold
same,Fold Change in virulence gene expression: ABC transp. perm.,[1]; substrate 1M,3.33 fold
same,Fold Change in virulence gene expression: EF-G,[1]; substrate 1M,1.45 fold
same,Fold Change in virulence gene expression: but.-coA transf.,[1]; substrate 1M,1.21 fold
same,Fold Change in virulence gene expression: hemin receptor,[1]; substrate 1M,3.26 fold
same,Fold Change in virulence gene expression: hemolysin,[1]; substrate 1M,1.90 fold
same,Fold Change in virulence gene expression: ompA,[1]; substrate 1M,1.33 fold
same,Fold Change in virulence gene expression: transposase,[1]; substrate 1M,1.27 fold
same,IL-8 levels in supernatants of HOK-18A cultures,[2]; biofilm rinsed with substrate 1%(w/v),54.75 ± 11.66 pg/mL
same,IL-8 levels in supernatants of HOK-18A cultures,[2]; biofilm rinsed with substrate 1M,0.22 ± 0.32 pg/mL
